Laboratory results: publication PMC6271099, “Synthesis and Biological Evaluation of Novel 2-Methoxypyridylamino-Substituted Riminophenazine Derivatives as Antituberculosis Agents” (Molecules, 2014)
Converted amounts (≈) assume the structure as drawn.

Columns and labels:
[1] = tested on: Vero cells; test: Cytotoxicity using Vero cells
[2] = Cytotoxicity using Vero cells; conditions: African green monkey, Vero cells
[3] = tested on: M. tuberculosis H37Rv; test: Microplate Alamar Blue Assay (MABA), in vitro antituberculosis activity (MIC); format: cell-based; conditions: Mycobacterium tuberculosis, 96-well plate
[4] = tested on: M. tuberculosis H37Rv; test: In vivo acute M. tuberculosis H37Rv infection assay in mice; set-up: species or system Mycobacterium tuberculosis; conditions: for logCFU/lung: BALB/c mice infected with M. tuberculosis H37Rv, 20 mg/kg, after 30 days of treatment, mean ± SD, n = 5
[5] = Preliminary mouse pharmacokinetic study; conditions: plasma, po, 20 mg/kg
[6] = Preliminary multidose in vivo toxicity study in mice; conditions: oral 500 mg/kg once daily for 4 days; for Safety in mice (in words): 7-day observation; for Number of animals that survived/Total number of animals: followed by 7-day observation
[7] = as compared to CFZ
[8] = mouse model infected by M. tuberculosis H37Rv

SMILES	SI (selectivity index IC50/MIC) [1]	IC50 [2] [µg/mL]	MIC [3] [µg/mL]	melting point [°C]	other results
CC(C)/N=c1\cc2n(-c3ccc(Cl)cc3)c3ccccc3nc-2cc1Nc1ccc(Cl)cc1 [CFZ, Clofazimine, reference compound]	572	68.6 (≈ 145 µM)	0.12 (≈ 0.253 µM)		logCFU/lung [4]: 4.29 ± 0.58; AUC(0-t) [5]: 8220 ng·h/mL; Cmax [5]: 470 ng/mL; Tmax [5]: 2 h; half-life [5]: 1630 min
COc1ncccc1Nc1cc2nc3ccccc3n(-c3cccc(F)c3)c-2cc1=NC(C)C [Compound 8, 5-(3-Fluorophenyl)-3-isopropylimino-2-(2-methoxy-3-pyridyl)amino-3,5-dihydrophenazine]	44	2.65 (≈ 5.84 µM)	0.06 (≈ 0.132 µM)	198 to 199	
COc1ncccc1Nc1cc2nc3ccccc3n(-c3cccc(F)c3)c-2cc1=NC1CCOCC1 [Compound 9, 5-(3-Fluorophenyl)-3-(4-tetrahydropyranyl)imino-2-(2-methoxy-3-pyridyl)amino-3,5-dihydro-phenazine]	151	9.21 (≈ 18.6 µM)	0.061 (≈ 0.123 µM)	190 to 191	
COc1ncccc1Nc1cc2nc3ccccc3n(-c3cccc(Cl)c3)c-2cc1=NC(C)C [Compound 10, 5-(3-Chlorophenyl)-3-isopropylimino-2-(2-methoxy-3-pyridyl)amino-3,5-dihydrophenazine]	20	5.1 (≈ 10.9 µM)	0.25 (≈ 0.532 µM)	215 to 217	
COc1ncccc1Nc1cc2nc3ccccc3n(-c3cccc(Cl)c3)c-2cc1=NC1CC1 [Compound 11, 5-(3-Chlorophenyl)-3-cyclopropylimino-2-(2-methoxy-3-pyridyl)amino-3,5-dihydrophenazine]	1696	50.9 (≈ 109 µM)	0.03 (≈ 0.0641 µM)	211 to 214	
COc1ncccc1Nc1cc2nc3ccccc3n(-c3cccc(Cl)c3)c-2cc1=NC1CCC1 [Compound 12, 5-(3-Chlorophenyl)-3-cyclobutylimino-2-(2-methoxy-3-pyridyl)amino-3,5-dihydrophenazine]		> 64	0.06 (≈ 0.124 µM)	205 to 208	
COc1ncccc1Nc1cc2nc3ccccc3n(-c3cccc(Cl)c3)c-2cc1=NC1CCCCC1 [Compound 13, 5-(3-Chlorophenyl)-3-cyclohexylimino-2-(2-methoxy-3-pyridyl)amino-3,5-dihydrophenazine]	934	53.3 (≈ 104 µM)	0.057 (≈ 0.112 µM)	197 to 201	
COc1ncccc1Nc1cc2nc3ccccc3n(-c3cccc(Cl)c3)c-2cc1=NC1CCOCC1 [Compound 14, 5-(3-Chlorophenyl)-3-(4-tetrahydropyranyl)imino-2-(2-methoxy-3-pyridyl)amino-3,5-dihydrophenazine]	936	23.4 (≈ 45.7 µM)	0.025 (≈ 0.0488 µM)	203 to 206	
COc1ncccc1Nc1cc2nc3ccccc3n(-c3ccc(F)c(F)c3)c-2cc1=NC(C)C [Compound 15, 5-(3,4-Difluorophenyl)-3-isopropylimino-2-(2-methoxy-3-pyridyl)amino-3,5-dihydrophenazine]		> 64	0.066 (≈ 0.14 µM)		logCFU/lung [4]: 4.56 ± 0.38; Efficacy in mouse model (in words) [4, 8]: excellent efficacy; Reduction of bacterial burden in the lungs as compared to the untreated control group ([4]; mouse model infected by M. tuberculosis H37Rv, lungs): 3.8 logs colony forming units (CFU); Safety in mice (in words) [6]: good safety; Number of animals that survived/Total number of animals [6]: 5/5; AUC(0-t) [5]: 21200 ng·h/mL; Cmax [5]: 1840 ng/mL; Tmax [5]: 2 h; half-life [5]: 828 min; Discoloration of the ears, internal organs and fat tissues of the mice [7]: less intense
COc1ncccc1Nc1cc2nc3ccccc3n(-c3ccc(F)c(F)c3)c-2cc1=NC1CC1 [Compound 16, 5-(3,4-Difluorophenyl)-3-cyclopropylimino-2-(2-methoxy-3-pyridyl)amino-3,5-dihydrophenazine]	1822	25.5 (≈ 54.3 µM)	0.014 (≈ 0.0298 µM)	213 to 214	
COc1ncccc1Nc1cc2nc3ccccc3n(-c3ccc(F)c(F)c3)c-2cc1=NC1CCC1 [Compound 17, 5-(3,4-Difluorophenyl)-3-cyclobutylimino-2-(2-methoxy-3-pyridyl)amino-3,5-dihydrophenazine]		> 64	0.04 (≈ 0.0827 µM)	200 to 201	
COc1ncccc1Nc1cc2nc3ccccc3n(-c3ccc(F)c(F)c3)c-2cc1=NC1CCCCC1 [Compound 18, 5-(3,4-Difluorophenyl)-3-cyclohexylimino-2-(2-methoxy-3-pyridyl)amino-3,5-dihydrophenazine]		> 64	0.03 (≈ 0.0586 µM)	218 to 219	
COc1ncccc1Nc1cc2nc3ccccc3n(-c3ccc(F)c(F)c3)c-2cc1=NC1CCOCC1 [Compound 19, 5-(3,4-Difluorophenyl)-3-(4-tetrahydropyranyl)imino-2-(2-methoxy-3-pyridyl)amino-3,5-dihydro-phenazine]		> 64	0.067 (≈ 0.13 µM)	255 to 256	
COc1ncccc1Nc1cc2nc3ccccc3n(-c3ccc(F)c(F)c3)c-2cc1=NC1CCC(OC)CC1 (centres unmarked) [Compound 20, 5-(3,4-Difluorophenyl)-3-(4-methoxycyclohexyl)imino-2-(2-methoxy-3-pyridyl)amino-3,5-dihydro-phenazine]		> 64	0.056 (≈ 0.103 µM)	214 to 215	
COc1ncccc1Nc1cc2nc3ccccc3n(-c3ccc(Cl)c(Cl)c3)c-2cc1=NC(C)C [Compound 21, 5-(3,4-Dichlorophenyl)-3-isopropylimino-2-(2-methoxy-3-pyridyl)amino-3,5-dihydrophenazine]		> 64	0.099 (≈ 0.196 µM)	245 to 247	
COc1ncccc1Nc1cc2nc3ccccc3n(-c3ccc(Cl)c(Cl)c3)c-2cc1=NC1CC1 [Compound 22, 5-(3,4-Dichlorophenyl)-3-cyclopropylimino-2-(2-methoxy-3-pyridyl)amino-3,5-dihydrophenazine]		> 64	0.025 (≈ 0.0498 µM)		logCFU/lung [4]: 8.06 ± 0.13; Efficacy in mouse model (in words) [4, 8]: failed to display efficacy; Safety in mice (in words) [6]: good safety; Number of animals that survived/Total number of animals [6]: 6/6
COc1ncccc1Nc1cc2nc3ccccc3n(-c3ccc(Cl)c(Cl)c3)c-2cc1=NC1CCC1 [Compound 23, 5-(3,4-Dichlorophenyl)-3-cyclobutylimino-2-(2-methoxy-3-pyridyl)amino-3,5-dihydrophenazine]		> 64	0.06 (≈ 0.116 µM)	216 to 219	
COc1ncccc1Nc1cc2nc3ccccc3n(-c3ccc(Cl)c(Cl)c3)c-2cc1=NC1CCOCC1 [Compound 24, 5-(3,4-Dichlorophenyl)-3-(4-tetrahydropyranyl)imino-2-(2-methoxy-3-pyridyl)amino-3,5-dihydro-phenazine]		> 64	0.08 (≈ 0.146 µM)	232 to 233	
COc1ncccc1Nc1cc2nc3ccccc3n(-c3ccc(Cl)c(Cl)c3)c-2cc1=NC1CCC(OC)CC1 (centres unmarked) [Compound 25, 5-(3,4-Dichlorophenyl)-3-(4-methoxycyclohexyl)imino-2-(2-methoxy-3-pyridyl)amino-3,5-dihydro-phenazine]		> 64	0.059 (≈ 0.103 µM)	215 to 217	
COc1ncccc1Nc1cc2nc3ccccc3n(-c3ccc(F)cc3)c-2c/c1=N\C(C)C [TBI-1004, reference compound]		> 64	0.038 (≈ 0.0838 µM)		
